What all share (assay type): cell-based
Test [1] concerns the target T1, BRD4 (Homo sapiens, UniProt O60885). Put plainly: CURE-PRO-mediated BRD4 degradation in HCT116 cells, WES (ProteinSimple). More on the design: endogenous in cells. The method, then:
All cell lines were purchased from ATCC or DSMZ and grown at 37° C. with 5% CO2. Human HeLa cells were cultured in complete growth medium (Dulbecco's modified Eagle's medium (DMEM) supplemented with 10% FBS); MCF7 cells were cultured in complete growth medium (Dulbecco's modified Eagle's medium (DMEM) supplemented with 10% FBS and 0.01 mg/ml human recombinant insulin (Sigma Aldrich); Namalwa and Ramos cells were cultured in complete growth medium (RPMI 1640 medium supplemented with 10% FBS); HCT116 and HT29 cells were cultured in complete growth medium (McCoy's 5a Medium supplemented with 10% FBS). For cellular degradation of BRD4 studies cells were seeded in a 12-well plate at 70-80% confluency, allowed to attach overnight, and incubated with the indicated compounds for the indicated time. When indicated, a 15-minute pretreatment with 10 μM pomalidomide, 10 μM VHL298, 10 μM Nutlin3a, 1 μM MG-132 or 1 μM Carfilzomib was performed before the addition of CURE-PROs. For washout studies, after CURE-PRO treatment, media was aspirated and incubated with complete medium for the indicated time before lysis.
WES Simple analysis was performed on WES system (ProteinSimple-Biotechne) according to the manufacturer's instructions. Total protein concentrations of cell lysates were determined by the Pierce BCA kit (Thermo Fisher). 3 μL of 0.3 μg/μL of the protein lysate was loaded onto a 12- to 230-kDa WES assay plate (ProteinSimple) where 300 nL sample was withdrawn through a capillary, subjected to electrophoretic separation of proteins by size, and followed by the simultaneous, HRP-based detection of proteins using the Anti-Rabbit Detection Module (Proteinsimple: #DM-001). The electropherograms were checked then the automatic peak detection was manually corrected if it was required.
HCT116 cells (3×10^6) were treated for 24 hours with the compounds solubilized in DMSO. Compounds were added at 1 μM-10 μM each. Standardized protein samples were electrophoresed and imaged as described in the WES ProteinSimple section above. FIGS. 59, 60, and 61 depict the concentration-dependence of CURE-PRO-mediated BRD4 degradation using MDM2 ligands.
HCT116 cells (3×10^6) were treated for 24 hours with the compounds solubilized in DMSO. Compounds were added at 1 μM-10 μM each. Standardized protein samples were electrophoresed and imaged as described in the WES ProteinSimple section above. FIGS. 62 and 63 depict the concentration-dependence of CURE-PRO-mediated BRD4 degradation using MDM2 ligands.
HCT116 cells (3×10^6) were treated for 24 hours with the compounds solubilized in DMSO. CURE-PRO monomers were added at 10 μM each and the proteasomal inhibitors at 1 μM. Standardized protein samples were electrophoresed and imaged as described in the WES ProteinSimple section above. FIG. 68 depicts the dependence of the proteasome for CURE-PRO-mediated BRD4 degradation.

Test [2] deals with T1, BRD4. In words: CURE-PRO-mediated BRD4 degradation in HeLa cells, Western blot. The conditions noted are these: 24 h. More on the design: endogenous in cells; host or cells: HeLa. The gist of the method:
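HeLa cells (2.5×10^6) treated 24 h with DMSO-solubilized compounds, degrader pairs combined 1:1, at 1 nM-1 μM, 1-10 μM, 10 μM or 10 and 100 μM each depending on series. RIPA lysates (10-20 μg protein) run on SDS-PAGE and immunoblotted for BRD4 with ECL detection.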
Background: Immunoblotting shows a protein as a band on a membrane.

In test [3] the target is T1, BRD4. In words: Summary of BRD4 degradation by CURE-PRO pairs, estimated from Western Blot or WES. More on the design: endogenous in cells. The gist of the method:
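Degradation read-out from immunoblot with ECL, or WES capillary electrophoresis with HRP detection, of RIPA lysates. Cells (Namalwa, Ramos, HeLa, MCF7, HT29 or HCT116) were exposed to DMSO-solubilized compounds for 24 h; a check mark marks 30% to 70% or higher degradation.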

“Also recorded” adds a separate entry of the source.

These results are taken from US20230285570A1, “THERAPEUTICALLY USEFUL CURE-PRO MOLECULES FOR E3 LIGASE MEDIATED DEGRADATION OF PROTEINS, AND METHODS OF MAKING AND USING THEM” (CORNELL UNIVERSITY, priority 2020, published 2023).

Take `CCNC(=O)C[C@@H]1N=C(c2ccc(Cl)cc2)c2cc(OCCCCC(=O)Nc3cccc(B(O)O)c3)ccc2-n2c(C)nnc21` [BRD-E20, (3-(5-(((4S)-6-(4-chlorophenyl)-4-(2-(ethylamino)-2-oxoethyl)-1-methyl-4H-benzo[f][1,2,4]triazolo[4,3-a][1,4]diazepin-8-yl)oxy)pentanamido)phenyl)boronic acid]: the BRD4 degradation entry was “had no effect on BRD4 protein levels” in test [1] (1:1 with MDM2 ligand 8313, HCT116, 24 h, 1 μM-10 μM each); “caused partial loss of the BRD4 protein; also recorded: Degradation is observed” in test [1] (1:1 with MDM2 ligand 8314, HCT116, 24 h, 1 μM-10 μM each); “causes degradation of BRD4; also recorded: Degradation is noted” in test [2] (co-treated 1:1 with CRBN ligand 8046, HeLa, 10 μM each); “causes degradation of BRD4; also recorded: Degradation is noted” in test [2] (co-treated 1:1 with CRBN ligand 8066, HeLa, 10 μM each). Moreover, in test [3] (Table 1, aryl-boronic acid BRD4 ligand + 8046), the “Degradation of BRD4, combination with CRBN ligand 8046” value is reported as “√ (A black check mark indicates efficacy of 30% to 70% or higher protein degradation)”. In addition, the “Degradation of BRD4, combination with CRBN ligand 8066” value in test [3] (Table 1, aryl-boronic acid BRD4 ligand + 8066) was “√ (A black check mark indicates efficacy of 30% to 70% or higher protein degradation)”. Also, the “Degradation of BRD4, combination with MDM2 ligand 8313” value in test [3] (Table 2, aryl-boronic acid BRD4 ligand + 8313) is “√ (A black check mark indicates efficacy of 30% to 70% or higher protein degradation)”. Further, the “Degradation of BRD4, combination with MDM2 ligand 8314” value in test [3] (Table 2, aryl-boronic acid BRD4 ligand + 8314) is recorded as “√ (A black check mark indicates efficacy of 30% to 70% or higher protein degradation)”. Moreover, the “Degradation of BRD4, combination with VHL ligand 8305” value in test [3] (Table 3, aryl-boronic acid BRD4 ligand + 8305) is reported as “√ (A black check mark indicates efficacy of 30% to 70% or higher protein degradation)”.

In the case of `CCNC(=O)C[C@@H]1N=C(c2ccc(Cl)cc2)c2cc(OCCOCCNC(=O)c3cccc(O)c3O)ccc2-n2c(C)nnc21` [BRD-N39, N-(2-(2-(((4S)-6-(4-chlorophenyl)-4-(2-(ethylamino)-2-oxoethyl)-1-methyl-4H-benzo[f][1,2,4]triazolo[4,3-a][1,4]diazepin-8-yl)oxy)ethoxy)ethyl)-2,3-dihydroxybenzamide], the BRD4 degradation result in test [1] (1:1 with MDM2 ligand 8310, HCT116, 24 h, 10 μM) was “caused BRD4 degradation”; in test [1] (1:1 with MDM2 ligand 8312, HCT116, 24 h, 10 μM), “caused BRD4 degradation”; in test [2] (BRD4 monomer alone, HeLa, 1-10 μM), “there is no degradation of BRD4”; in test [2] (co-treated 1:1 with CRBN ligand 8048, HeLa, 1-10 μM each), “causes degradation of BRD4; also recorded: Degradation is noted”; in test [2] (co-treated 1:1 with CRBN ligand 8049, HeLa, 1-10 μM each), “no evidence of BRD4 degradation”. For the same compound, the “Degradation of BRD4, combination with CRBN ligand 8048” value in test [3] (Table 4, aromatic 1,2-diol BRD4 ligand + 8048) is “√ (A black check mark indicates efficacy of 30% to 70% or higher protein degradation)”. The “Degradation of BRD4, combination with MDM2 ligand 8310” value in test [3] (Table 5, aromatic 1,2-diol BRD4 ligand + 8310) is “√ (A black check mark indicates efficacy of 30% to 70% or higher protein degradation)”. Further, in test [3] (Table 5, aromatic 1,2-diol BRD4 ligand + 8312), the “Degradation of BRD4, combination with MDM2 ligand 8312” value is recorded as “√ (A black check mark indicates efficacy of 30% to 70% or higher protein degradation)”.
